The test system of experiment [1] is phosphorylated ERK, CREB, Akt, P38, MEK in cortical neurons. Kind of experiment: Western blot detection of signaling proteins in cortical neurons. The class given is cell-based, rat. Particulars: cortical neurons 7DIV.
Experiment [2] has as its system cortical neurons in the absence of B27. Kind of experiment: Immunocytochemical analysis of neurons after B27 withdrawal. Particulars: 30 μM, pre-treated 24 hours. The class given is cell-based, rat. How it is done:
FIG. 10. Immunofluorescence staining of cortical neurons pretreated with Adelostemma gracillimum refined fraction or fraction AG-3 in the absence of B27. […] Cortical neuronal cultures of 7DIV were pre-treated with AG-0 (30 μg/mL), AG-3 (30 μg/mL), or BDNF (50 ng/mL) for 24 hours, then the medium was changed to one lacking B27. Cultures were fixed with 4% paraformaldehyde, immunostained with beta-tubulin type III antibody, and visualized with FITC-conjugated anti-mouse antibody. Cell bodies were highlighted by DAPI staining. DMSO was used as a solvent control. Images are shown at 40× magnification.
FIG. 21. Immunofluorescence staining of GAG-C27-treated cortical neurons in the absence of B27. Cortical neuronal cultures of 7DIV were pre-treated with AG-0 (30 μg/mL), GAG-C27 (30 μM), or BDNF (50 ng/mL) for 24 hours, after which the medium was changed to one lacking B27. Cultures were fixed with 4% paraformaldehyde, immunostained with beta-tubulin type III antibody, and visualized with FITC-conjugated anti-mouse antibody. Cell bodies were highlighted by DAPI staining. DMSO was used as a solvent control. […]
Cortical neurons were plated on 35-mm dishes (NUNC) at a density of 1×10^6 cells per plate using Neurobasal medium (Invitrogen) supplemented with 2% B27 (Invitrogen). […] Cell morphology was then analyzed using a fluorescence microscope with a 40× objective (DMRA; Leica). […]

Experiment [3] deals with rat cortical neurons cultured in the absence of B27. The experiment can be described thus: Cortical neuron survival assay with B27 withdrawal (MTT). The class given is cell-based. Particulars: for cell survival of cortical neurons in the absence of B27 (MTT): 30 μM, pre-treated 24 hours (FIG. 15); for concentration showing neuroprotective effect in the absence of B27 (MTT): primary cortical neurons 7DIV, dose-dependent study 1-30 μM. How it is done: FIG. 2. Adelostemma gracillimum refined fraction promotes rat cortical neuron survival against B27 withdrawal. Cortical neurons isolated from embryonic day 18 rats were cultured in Neurobasal medium supplemented with 2 % B27. […] A MTT assay was performed 24 hours later. Cell survival is presented as a percentage compared to a DMSO control in the presence of B27 (“CTL with B27”). Assays were conducted in triplicate and repeated at least twice. *=P<0.05.
Primary cortical neurons were cultured in Neurobasal medium and supplemented with B27, a proprietary formula of Life Technologies. The combination of Neurobasal medium and B27 provides a stable growth environment for primary neurons to maturity in vitro. Neurons undergo apoptosis or cell death in the absence of B27. To study the neuroprotective effect of Adelostemma gracillimum refined fraction, neurons of 7DIV were treated with AG-0 and cell survival was measured as mitochondrial activity by the MTT assay.
The cells were then washed with Hanks' solution twice and replaced with test samples that were serial diluted in Neurobasal medium. A tetrazole, 3-(4,5-Dimethylthiazol-2-yl)-2,5-diphenyltetrazolium bromide (MTT, 5 mg/ml) was added to the medium at a ratio of 1:10 after a 2-day incubation. MTT is reduced by living cells into purple formazan and further solubilized in 20% SDS solution; therefore, the colored solution was measured by spectrophotometer and cell viability was quantified.

The next experiment has as its system hippocampal neurons. The experiment can be described thus: Quantification of spine (dendritic spine morphology). The class given is cell-based, rat. Particulars: hippocampal neurons 14DIV, 10 μM, 24 hr, vs DMSO. As for the experimental part: FIG. 38. GAG-C14 modulates spine morphogenesis. Hippocampal neurons were transfected with enhanced green fluorescent protein (EGFP) construct at 7DIV by calcium phosphate precipitation. The GFP-expressing neurons at 14DIV were then treated with 10 μM GAG-C14 or DMSO vehicle control for 24 hr. The dendritic spine morphology of hippocampal neurons was examined by confocal microscopy.
Cultured hippocampal neurons were seeded on 18 mm coverslips coated with poly-D-lysine in 12-well-plates (Falcon). The neurons were then grown in Neurobasal medium (Invitrogen) supplemented with 2% B27 (Invitrogen) and 0.5 mM glutamine. To visualize the morphology of dendritic spines, the neurons were transfected with GFP DNA construct between 7-9 DIV by using calcium phosphate precipitation. To examine the development of dendritic spines, the neurons were treated with the test compound on 14 DIV. The neurons were then fixed with 4% paraformaldehyde and morphology was examined using confocal microscopy. To quantify spine density in cultured hippocampal neurons, a stack of images (z step, 0.5 μm) was collected using a 60× objective. Images were merged and analyzed using MetaMorph software (Universal Imaging Corp). Dendritic spines, defined as protrusions at least 0.5 μm from the dendritic surface, were scored and expressed as per μm length of dendrite. Three dendrites from each neuron was randomly selected and quantified in a double-blinded manner. For each experimental condition, twenty to thirty neurons were analyzed from 3 independent experiments. Data was presented as mean±SEM.

The test system of experiment [4] is cyclic AMP response (CRE) element. Kind of experiment: CRE-dependent transcription assay (luciferase). The class given is cell-based, rat. Particulars: hippocampal neurons 12DIV, 50 μM, 6 hours. As for the experimental part: FIG. 41. GAG compounds enhance CRE-dependent transcription activity. GAG-C14 (a), GAG-C53 (b), GAG-C63 (c), GAG-C69 (d), GAG-C84 (e), GAG-C111 (f), GAG-C122 (g), GAG-C123 (h), and GAG-C129 (i) induce CRE-dependent transcriptional activity in cultured hippocampal neurons. On the day of cell seeding, hippocampal neurons were transfected with a firefly luciferase reporter plasmid containing cyclic AMP response (CRE)-element. The cells at 12 DIV were then treated with 50 μM of AG compounds for 6 hours. Data are mean±SEM (n=3-4), *=P<0.05, **=P<0.01, and ***=P<0.005 versus vehicle-treated cells (0 μM), student's t test.
Cultured hippocampal neurons were transfected with a firefly luciferase reporter plasmid containing a cyclic AMP response (CRE) element. At 12DIV, the cells were treated with 50 μM of compound for 6 hours, then CRE-dependent transcription activity was assayed by measuring luciferase levels.
Freshly isolated embryonic cortical neurons were transfected with a luciferase reporter gene (Cre-Luc) linked to CREB activation following the ACM lipofectamine method using Lipofectamine 2000, a cationic liposome based reagent (Invitrogen). […] Transfection was performed using 1 μL Lipofectamine 2000 and 0.4 μg DNA per well. Neurons were then treated with test samples for time periods of 6 hours. After treatment, the cells were washed with ice-cold DPBS and 100 μL of 1× luciferase lysis buffer (Promega) was added. The plates were placed in −20° C. to freeze the cells, after which they were thawed to facilitate lysis. The lysates were transferred onto white bottom plates and assayed for renilla luciferase using the luciferase assay kit (Promega). Increased CREB activation in the neurons leads to an enhanced luciferase production and this was quantified using a Promega GloMax™ 96 microplate luminometer. […] BDNF and rolipram were used as positive controls.

A further experiment relates to CREB promoter. Kind of experiment: CREB promoter assay (luciferase) in cortical neurons. The class given is cell-based, rat. Particulars: cortical neurons 7DIV, 6 hours incubation. As for the experimental part: FIG. 26. GAG-C77 increases CREB-promoter activity in primary cortical neurons. Primary cortical neuronal cultures (7DIV) transfected with a luciferase-CREB promoter construct were treated with GAG-C69 or GAG-C77 (concentration depicted in [μM]). Cell lysates were collected after 6 hours incubation and luciferase activity was measured. BDNF [ng/mL] and rolipram [μM] were used as positive controls. Assays were conducted in triplicate. *=P<0.05; **=P<0.005.
Freshly isolated embryonic cortical neurons were transfected with a luciferase reporter gene (Cre-Luc) linked to CREB activation following the ACM lipofectamine method using Lipofectamine 2000, a cationic liposome based reagent (Invitrogen). […] Transfection was performed using 1 μL Lipofectamine 2000 and 0.4 μg DNA per well. Neurons were then treated with test samples for time periods of 6 hours. After treatment, the cells were washed with ice-cold DPBS and 100 μL of 1× luciferase lysis buffer (Promega) was added. The plates were placed in −20° C. to freeze the cells, after which they were thawed to facilitate lysis. The lysates were transferred onto white bottom plates and assayed for renilla luciferase using the luciferase assay kit (Promega). Increased CREB activation in the neurons leads to an enhanced luciferase production and this was quantified using a Promega GloMax™ 96 microplate luminometer. […]

With “3-O-β-D-Cymaropyranose-(1→4)-β-D-Digitoxopyranose-12-cis-cinnamyl-20-acetyl-8,14-seco-sacrostin [GAG-C27]”, in experiment [1] (10 μM), the AKT protein phosphorylation result is “no effect” and the “ERK phosphorylation time course” value was “induced ERK phosphorylation in cortical neurons after 15 min, which was sustained for 60 min”. Moreover, the “phosphorylated P38” value in experiment [1] (10 μM, after 30 min of incubation) is given as “reduction”. In addition, the “protection from cell death after B27 withdrawal (immunofluorescence staining)” value in experiment [2] is reported as “protected cortical neurons from cell death”. Moreover, in experiment [3], the “cell survival of cortical neurons in the absence of B27 (MTT)” value is “promoted cell survival” and the “concentration showing neuroprotective effect in the absence of B27 (MTT)” value turned out to be 30 µM.
As for `CCCCCCCCCCCCCCCC(=O)OCC(O)CO` (centres unmarked) [GAG-C14, 2,3-dihydroxypropyl palmitate], in experiment [1] (10 μM), the AKT protein phosphorylation result is listed as “no observable effect”; the “ERK phosphorylation time course” value was “induced ERK phosphorylation in cortical neurons after 15 min and the effect remained for 90 min”. Moreover, in the experiment on hippocampal neurons, the “frequency / percentage of filopodia” value is given as “reduction in the frequency of filopodia”, the “percentage of large spines (head>1 μm)” value was “significantly increased” and the spine density entry is on record as “increase in spine density”. Moreover, the “CRE-dependent transcription activity (luciferase)” value in experiment [4] is “enhances CRE-dependent transcription”.
As to `COc1cc(C2Oc3c(OC)cc(C=O)cc3C2C)ccc1O` (centres unmarked) [GAG-C77, 4-hydroxyl-3,3′-dimethyoxyl-4″,7-epoxy-8,5′-oxyneoligna-7′-al], in experiment [1] (30 μM), the “ERK phosphorylation time course” value is “significantly induced ERK phosphorylation in cortical neurons from 15 min and persistently to 180 min”. In addition, in experiment [1] (30 μM, 15 min of incubation), the CREB phosphorylation entry is recorded as “induced CREB phosphorylation”. Also, in the experiment on CREB promoter, the “luciferase activity driven by the CREB promoter” value is given as “significantly induce luciferase activity”. Moreover, in experiment [3], the “cell survival of cortical neurons in the absence of B27 (MTT)” value is given as “promoted cell survival” and the “concentration showing neuroprotective effect in the absence of B27 (MTT)” value lay within 10 to 30 µM.

Values taken from patent US9150608B2, “Neuro-protective compounds and their use” (Biotechnology Research Corp. Ltd., priority 2010, dated 2015).
